In publication PMC6274259, “New 3-Cyano-2-Substituted Pyridines Induce Apoptosis in MCF 7 Breast Cancer Cells” (Molecules, 2016):

Key:
MCF-7 cells [1] = test: Enzyme linked immunosorbent apoptosis assay (Cell Death Detection ELISA PLUS); format: cell-based, human
Description: Compound 9a was further investigated for induction of apoptosis in MCF-7 cells using Cell Death Detection ELISA^PLUS which is used for the quantitative in vitro determination of cytoplasmic histone-associated DNA fragments (mono- and oligonucleosomes) in apoptosing cells.
Cells were seeded at a density of 2 × 10^4/ well in a 96-well plate and incubated for 24 h. […] An ELISA assay was performed using Cell Death Detection ELISA PLUS kit (Roche-Applied Science, Indianapolis, IN, USA) for the quantitative in vitro determination of cytoplasmic histone-associated DNA fragments (mono- and oligonucleosomes) in apoptosing cells. Briefly, cells were lysed with 200-μL lysis buffer for 30 min at room temperature. The lysate was centrifuged at 200 g for 10 min. 150 μL of supernatant was collected, of which 20 μL was incubated with anti-histone biotin and anti-DNA peroxidase at room temperature for 2 h. After washing with incubation buffer three times, 100 μL of substrate solution (2,2′-azino-di(3-ethylbenzthiazolinsulphonic acid) was added to each well and incubated for 15–20 min at room temperature. The absorbance was measured using an ELISA reader (Spectra Max Plus) at 405 nm. The control group was cells without compounds treatment. Each assay was done in triplicate and the standard deviation was determined.

[2] = system: SK-OV-3 human ovarian carcinoma cell line; test: WST-1 cell viability assay, SK-OV-3; format: cell-based; settings: Homo sapiens, SK-OV-3; WST-1, 24 h treatment, mean ± S.D of three independent experiments
From the text: The synthesized compounds were screened for their cytotoxicity on five cancer cell lines, namely SK-OV-3, MCF-7, MDA-MB-231, HCT-116 and RKO, using a WST colorimetric assay. The assay principle is based upon the reduction of the tetrazolium salt WST-1 to formazan by cellular mitochondrial dehydrogenases present in viable cells. […] Among the latter compounds the benzohydrazide derivative 9a emerged with the lowest IC50 in this study against MCF-7 cells compared to 5-FU. […] Based on the fact that 9a had less cytotoxic effects on normal breast epithelial cells it was subjected to further studies.
The following cell lines were used for the screening stage, obtained from the American Type Culture Collection (ATCC, Manassas, VA, USA); SK-OV-3 (HTB-77), MCF-12A (ATCC CRL-10782), MDA-MB-231 (ATCC HTB-26), HCT-116 (CCL-247), RKO (CRL-2577) and sub-culturing of the above cell lines was conducted in 75 cm^2 flasks. The old culture media was removed and discarded after assessing the confluency of the cells and the cells were rinsed with 2–3 mL diluted trypsin (1×) (trypsin/EDTA solution consists of 0.025% trypsin and 0.01% EDTA in PBS), for about 5 minutes for complete detachment. The cells were observed under the inverted microscope until the cell layer is completely dispersed. 75 cm^2 flasks were prepared and 16 mL of DMEM media for SK-OV-3, MCF-7, MDA-MB-231, (DMEM 4500 mg glucose) and RPMI media for HCT-116 were added to each flask. The cells were aspirated gently and added to the flasks. DMEM 4500 mg/L high glucose with 10% FBS, 5% streptomycin and penicillin, RPMI 1640 (prepared by adding 5% heat-inactivated FCS and 2 mm glutamine) were used. DMEM was also used for MCF-12A cells with the addition of human epidermal growth factor 20 ng/mL, insulin 0.01 mg/mL and hydrocortisone 500 ng/mL.
The synthesized compounds were screened for their anti-proliferative activity using 5-FU (F6627-1G, Sigma-Aldrich, St. Louis, MO, USA) as reference compound. A concentration of 0.4% DMSO was used in all experiment after ensuring 100% viability of the cell lines with this concentration. A 25 mM stock concentration of all compounds was prepared for further studies and analysis.
Cells were trypsinized and placed in a 15 mL Falcon tube, the cells were centrifuged for 3 min at 1000 rpm. Trypsin is decanted using a sterile pipette and then the pellet is loosened by flicking the tube few times then 5–10 mL warm DMEM or RPMI were added to the Falcon tube and the pellet is resuspended. Cell count was done next by taking 10 μL of the suspension into the cell counting slide and read under 10× cells/mL. A cell stock of 50,000 cells/mL was prepared for the 96 wells. Cells (100 μL) were added to each well using a sterile pipette each time to ensure consistency. The experiment was planned ahead of time using excel sheet, 3–6 wells were reserved as blank media while 3–6 wells for vehicle (DMSO). The plate was incubated for 24 h for compound treatment step. DMEM media was used to prepare different dilutions of the compounds. The old DMEM media was removed from the wells using sterile pipette in the hood and the media was replaced with 100 μL media with each compound. The plate was incubated for 24 h. After 24 h incubation, WST-1 reagent (Sigma) was added to each well and then the plate was incubated for 1 h before measuring the absorbance using VICTOR™ Multilabel Plate Reader (Perkin Elmer, Beaconsfield, UK). The absorbance of the colored solution can be quantified by measuring at a certain wavelength (usually between 500–600 nm), in this experiment the first reading was conducted at 540 nm and the second reading at 690 nm for the reference wavelength. The percentage of cell viability was determined as the ratio of the absorbance of the sample vs the control. Three independent experiments were performed. […] 5-Florouracil (Sigma-Aldrich, F6627-1G) was used as reference standard.

MCF-7 cells [3] = test: Flow cytometric cell cycle analysis (PI staining); format: cell-based, human; settings: 2 μM, 24 h; control group 37%
Description: Flow cytometry is considered one of the specific tools for the investigation of molecular and morphological events occurring during cell death and cell proliferation. Therefore, the effect of compound 9a on cell cycle progression was studied by flow cytometry in propidium iodide (PI) stained cells. The percent of cells in G1, S, G2 phases was determined after treating cells with 2 μM of 9a for 24 h (Figure 4D). […] Thus, it can be concluded that compound 9a inhibits the proliferation of MCF-7 cells and the growth inhibition is associated with induction of G1 phase arrest. p27 is considered as an important regulator of cell cycle. To determine whether compound 9a-induced G1 arrest was associated with increased p27 level, and to study the effect on the expression of CDK2 and CDK4 involved in cell cycle progression, cells were analyzed for the expression of these proteins using western blot analysis after treatment with 2 μM of 9a for 24 h.
MCF-7 cells were seeded in 25 cm^2 flasks until reaching the desirable confluence of 1 million cells and media was changed to media containing compound 9a (2 μM). After 24 h incubation, the cells were harvested by trypsinization to detach the cells without affecting the integrity of the cell membrane. The cells were incubated with PI for 5 min at room temperature, washed twice with PBS and […]. […]

COc1ccc(-c2cc(-c3ccc(OC)c(OC)c3)c(C#N)c(OCC(=O)NNC(=O)c3ccccc3)n2)cc1OC [Compound 9a, N'-[2-(3-cyano-4,6-bis(3,4-dimethoxyphenyl)pyridin-2-yloxy)acetyl]benzohydrazide]
induction of apoptosis, concentration dependence (MCF-7 cells [1]; 0.1 to 4 μM): increased in a dose dependent fashion
induction of apoptosis, exposure time with optimum value (MCF-7 cells [1]; exposure 3 h to 48 h): 24 h
IC50 [2]: 9.06 ± 0.24 µM
percent of G1 population (MCF-7 cells [3]): 54%
